# Like-named read-outs stand apart in the source and are kept apart here.
# Columns and labels:
# rubella virus [1] = test: qRT-PCR of viral RNA in infected Jeg-3 cells; format: cell-based; conditions: 10 μM, 48 h, vs vehicle
# Protocol: (§1) We next performed orthogonal assays to determine the magnitude of the inhibition of rubella infection upon treatment with either NM107 or AT-527. […] We also determined if these nucleoside analogs impacted virus production.
# (§2) A549 cells were plated in 6-well plates at 5 × 10^5 cells/well, HBMEC were plated at 6 × 10^5 cells/well, or Jeg-3 cells were plated at 5 × 10^5 cells/well. Twenty-four hours later, vehicle or drugs were added at the indicated concentrations. One hour later, cells were infected with rubella virus (MOI = 0.17 for A549s, MOI = 0.07 for HBMEC, MOI = 0.05 for Jeg-3 cells) and HBMEC were spin-infected by centrifuging at 1,250×g for 1 h at 25°C. […] At 48 hpi, total RNA was purified using Trizol (Invitrogen) followed by the RNA Clean and Concentrate kit (Zymo Research). cDNA synthesis was performed with random hexamers and Moloney murine leukemia virus reverse transcriptase (Invitrogen). Gene-specific primers to rubella RA27/3 NSP and GAPDH were used (Table S4). […] Relative quantities of viral and cellular RNA were calculated using a relative standard curve method where quantification was performed with respect to a 5-point standard curve generated from serial dilutions of a pooled reference generated by combining each sample cDNA for the experiment. […]
# rubella virus [2] = test: rubella virus infection of Jeg-3 cells, dose-response; format: cell-based; conditions: for IC50: Rubella virus
# Protocol: Since rubella can cause congenital infections, we next developed assays in the human trophoblast cell line Jeg-3.
# (§3) A549 cells were plated in 384 well plates at 3,000 cells/well, HBMEC were plated at 7,000 cells/well, or Jeg-3 cells were plated at 3,000 cells/well in 20 μL growth media. The next day, 50 nL of drugs were added to assay wells, yielding a final concentration of 1 µM. The positive control nanchangmycin (n = 32) and the negative control DMSO (n = 32) were spotted on each assay plate. One hour later, cells were infected with rubella virus at a multiplicity of infection (MOI) = 0.234 for A549s, MOI = 0.1 for HBMEC, MOI = 0.05 for Jeg-3 cells). […] HBMECs were spin-infected by centrifuging at 1,250×g for 1 h at 25°C. Cells were fixed at 48 h post infection (hpi) in 4% formaldehyde/phosphate-buffered saline (PBS) for 15 min at room temperature and then washed twice with PBS. Cells were blocked with blocking buffer [2% bovine serum albumin in PBS with 0.1% Triton X-100 (PBST)]) for 1 h and incubated with primary antibody (mouse antirubella E1, CDC, 1 μg/mL) overnight at 4°C. Cells were washed three times with PBST and incubated in secondary (1:1000 antimouse Alexa Fluor 488 and 5 μg/mL Hoechst 33342) for 1 h at room temperature. Cells were washed three times with PBST and imaged using ImageXpress Micro (Molecular Devices). Cells were imaged with a 10× objective capturing four sites per well. The total number of cells and the percentage of infected cells were measured using the MetaXpress 5.3.3 cell scoring module. The aggregated percent infection of the DMSO and 2 µM nanchangmycin control wells on each assay plate were used to calculate Z′-factors. Sample well infection was normalized to aggregated DMSO plate control wells and expressed as percentage of control (POC = [%Infection sample/Average %Infection DMSO] × 100) and Z-score (Z = [%Infection sample − Average %Infection DMSO]/Standard Deviation %Infection DMSO) in Spotfire (PerkinElmer). Candidate hits were selected as compounds with POC <40% and viability >60%, compared with vehicle control.
# (§4) Drugs were purchased as powders from Selleckchem, MedchemExpress, and MedKoo and suspended in DMSO. Drugs were arrayed in 8-pt dose–response in 384 well plates. Infections were performed using the screening conditions. DMSO (n = 32) and 2 µM nanchangmycin (n = 16) were included on each validation plate as controls for normalization. Infection at each drug concentration was normalized to aggregated DMSO plate control wells and expressed as POC (POC = %Infection sample/Average %Infection DMSO cont). A nonlinear regression curve fit analysis (GraphPad Prism 8) was performed on POC infection and cell viability using log10 transformed concentration values to calculate IC50 values for infection and CC50 values for cell viability. SI was calculated as a ratio of the drug's CC50 and IC50 values (SI = CC50/IC50).
# rubella RA27/3 virus = test: microbe, parasite or virus in culture; format: cell-based; conditions: for selectivity index (SI = CC50/IC50): A549 cells; for IC50 / inhibition at 1 µM: Rubella virus; for inhibition at 1 µM: A549, read-out: inhibition of infection in primary screen
# Description: (§5) We developed a high-throughput, high-content, cell-based assay to monitor rubella virus infection of the human respiratory cell line A549, as the respiratory tract is infected in humans. […] We infected A549 cells with the rubella virus vaccine strain (RA27/3) and monitored infection using an antibody to the viral glycoprotein E1 (Fig. 1A) ([13]). […] To evaluate the utility of nanchangmycin as a positive control for our assay development, we performed a dose–response assay for nanchangmycin using automated fluorescent microscopy to quantify the cell number as a surrogate for cell viability and percent infection (Fig. 1A).
# as §3, with “plate.” for “plate. One hour later, cells were infected with rubella virus at a multiplicity of infection (MOI) = 0.234 for A549s, MOI = 0.1 for HBMEC, MOI = 0.05 for Jeg-3 cells).”, “Cells were washed three times with PBST and incubated in secondary (1:1000 antimouse Alexa Fluor 488 and 5 μg/mL Hoechst 33342) for 1 h at room temperature.” left out
# as §4
# rubella virus [3] = test: viral titers of A549 supernatants, TCID50 assay; format: cell-based; conditions: A549 cells, 10 µM, 48 hpi, at the limit of detection
# Protocol: (§6) A549 or Jeg-3 cells were plated, treated, and infected as for the qRT–PCR experiments. At 4 hpi, cells were washed twice with DPBS (Invitrogen) to remove any nonadsorbed virus and 2 mL of appropriate culture medium treated with vehicle or drug was added. At 48 hpi, cell supernatants were collected and titered by TCID50 assay.
# (§7) A549 cells were plated in 96 well plates at 25,000 cells/well and incubated overnight before inoculating with two-fold serial dilutions of viral stock or virus-containing supernatant to determine viral titer. At 24 hpi, plates were processed for microscopy and imaged as above. Titers were calculated using the Reed–Muench method ([26]).
# rubella virus [4] = test: qRT-PCR of viral RNA in infected A549 cells; format: cell-based; conditions: 10 µM, 48 h, vs vehicle
# Protocol: as §1, §2
# HCV [5] = tested on: HCV; parameters: method as in PMID 31914458; conditions: cited from earlier work
# rubella virus [6] = test: viral titers of Jeg-3 supernatants, TCID50 assay; format: cell-based; conditions: Jeg-3 cells, 10 μM, 48 hpi, below the limit of detection
# Protocol: as §6, §7
# Jeg-3 cells = test: cell number (cell viability) in Jeg-3 cells; format: cell-based, human
# Protocol: as §3, with “The aggregated percent infection of the DMSO and 2 µM nanchangmycin control wells on each assay plate were used to calculate Z′-factors.” left out, “Candidate hits were selected as compounds with POC <40% and viability >60%, compared with vehicle control.” left out
# (§8) Drugs were purchased as powders from Selleckchem, MedchemExpress, and MedKoo and suspended in DMSO. […] Infection at each drug concentration was normalized to aggregated DMSO plate control wells and expressed as POC (POC = %Infection sample/Average %Infection DMSO cont). […] SI was calculated as a ratio of the drug's CC50 and IC50 values (SI = CC50/IC50).
# rubella virus [7] = test: rubella virus infection of HBMEC, dose-response; format: cell-based; conditions: for activity against rubella in HBMEC: dose-response
# Protocol: Rubella virus can infect diverse tissues in vivo, and viruses can show tissue-specific dependencies on host factors. […] First, we developed assays in human brain microvascular endothelial cells (HBMECs) as a model for endothelial cells. We again used nanchangmycin to optimize the assay (Fig. 3A and B).
# as §3, §4
# [8] = cell number (cell viability) in A549 cells, Hoechst 33342, automated microscopy; format: cell-based, human; conditions: human
# Description: as §5, §3, §4
# [9] = cell number (cell viability) in Jeg-3 cells; format: cell-based, human; conditions: human, Jeg-3 cells (infected with rubella virus)
# Protocol: as §3, with “The aggregated percent infection of the DMSO and 2 µM nanchangmycin control wells on each assay plate were used to calculate Z′-factors.” left out, “Candidate hits were selected as compounds with POC <40% and viability >60%, compared with vehicle control.” left out
# as §8
# [10] = cell number (cell viability) in HBMEC; format: cell-based; conditions: human, HBMEC (infected with rubella virus)
# Protocol: A549 cells were plated in 384 well plates at 3,000 cells/well, HBMEC were plated at 7,000 cells/well, or Jeg-3 cells were plated at 3,000 cells/well in 20 μL growth media. The next day, 50 nL of drugs were added to assay wells, yielding a final concentration of 1 µM. The positive control nanchangmycin (n = 32) and the negative control DMSO (n = 32) were spotted on each assay plate. One hour later, cells were infected with rubella virus at a multiplicity of infection (MOI) = 0.234 for A549s, MOI = 0.1 for HBMEC, MOI = 0.05 for Jeg-3 cells). […] HBMECs were spin-infected by centrifuging at 1,250×g for 1 h at 25°C. […] The total number of cells and the percentage of infected cells were measured using the MetaXpress 5.3.3 cell scoring module. […] Sample well infection was normalized to aggregated DMSO plate control wells and expressed as percentage of control (POC = [%Infection sample/Average %Infection DMSO] × 100) and Z-score (Z = [%Infection sample − Average %Infection DMSO]/Standard Deviation %Infection DMSO) in Spotfire (PerkinElmer). […]
# as §8
# [11] = parameters: method as in PMID 16248033; conditions: cited from earlier work
# HCV [12] = tested on: HCV; parameters: method as in PMID 16248033; conditions: reason for discontinuation; cited from earlier work
# rubella virus [13] = tested on: rubella virus; parameters: method as in PMID 30680653, PMID 28974385; conditions: cited from earlier work
# rubella virus [14] = tested on: rubella virus; parameters: method as in PMID 30680653, PMID 28974385; conditions: case study; cited from earlier work
smiles,measurement,setting,value
CNc1nc(N)nc2c1ncn2[C@@H]1O[C@H](CO[P@@](=O)(N[C@@H](C)C(=O)OC(C)C)Oc2ccccc2)[C@@H](O)[C@@]1(C)F [AT-527],reduction in viral RNA by qRT-PCR,rubella virus [1],> 100 fold
same,IC50,"rubella virus [2]; JEG-3, read-out: IC50, rubella virus infection",10 nM
same,selectivity index (SI = CC50/IC50),rubella RA27/3 virus,> 9
same,IC50,"rubella RA27/3 virus; A549, read-out: half-maximal inhibitory concentration (IC50), rubella virus infection",2250 nM
same,reduction of viral titers,rubella virus [3],"~100,000 fold"
same,reduction in viral replication as measured by qRT-PCR,rubella virus [4],> 100 fold
same,in vivo activity in a clinical trial,HCV [5]; HCV infection,showed in vivo activity
same,tolerability in clinical trial,HCV [5],well tolerated
same,reduction of viral titers,rubella virus [6],"~10,000 fold"
O=C1NC(=O)C(c2cnc3ccccn23)=C1c1cn2c3c(cc(F)cc13)CN(C(=O)N1CCCCC1)CC2 [LY2090314],toxicity in Jeg-3 cells,Jeg-3 cells; Jeg-3 cells,no toxicity
same,activity against rubella in Jeg-3 cells,"rubella virus [2]; Jeg-3 cells, dose-response",no activity
same,activity against rubella in HBMEC,rubella virus [7],showed activity
same,"viability at 48 h, 1 µM","[8]; A549 cells (infected with rubella virus RA27/3), A549 cells, 1 µM, compared with vehicle alone, read-out: cell viability in primary screen",> 60%
same,selectivity index (SI = CC50/IC50),rubella RA27/3 virus,> 2000
same,inhibition at 1 µM,rubella RA27/3 virus,> 60%
"C[C@@]1(O)[C@H](O)[C@@H](CO)O[C@H]1n1ccc(N)nc1=O [NM107, 2′-C-methylcytidine]",CC50 at 48 h,[9],> 20000 nM
same,reduction in viral RNA by qRT-PCR,rubella virus [1],> 100 fold
same,IC50,"rubella virus [2]; Jeg-3 cells, read-out: IC50, rubella virus infection",600 nM
same,IC50,rubella virus [7]; Rubella virus,< 10 nM
same,CC50 at 48 h,"[8]; A549 cells (infected with rubella virus RA27/3), A549 cells, cell number, read-out: half-maximal cytotoxicity concentration (CC50)",> 20000 nM
same,selectivity index (SI = CC50/IC50),rubella RA27/3 virus,> 817
same,IC50,"rubella RA27/3 virus; A549, read-out: IC50, rubella virus infection",20 nM
same,reduction of viral titers,rubella virus [3],"~100,000 fold"
same,reduction in viral replication as measured by qRT-PCR,rubella virus [4],> 100 fold
same,CC50 at 48 h,[10],> 20000 nM
same,reduction of viral titers,rubella virus [6],"~10,000 fold"
same,bioavailability,[11],low bioavailability
CC(C)[C@H](N)C(=O)O[C@@H]1[C@@H](CO)O[C@@H](n2ccc(N)nc2=O)[C@]1(C)O [NM283],toxicity in clinical trials,HCV [12],gastrointestinal toxicity
COC1=C2C[C@@H](C)C[C@H](OC)[C@H](O)[C@@H](C)/C=C(\C)[C@H](OC(N)=O)[C@@H](OC)/C=C\C=C(/C)C(=O)NC(=CC1=O)C2=O [geldanamycin],toxicity in Jeg-3 cells,Jeg-3 cells,high toxicity
same,activity against rubella in HBMEC,rubella virus [7],showed activity
same,"viability at 48 h, 1 µM",[8],> 60%
same,selectivity index (SI = CC50/IC50),rubella RA27/3 virus,> 163
same,inhibition at 1 µM,rubella RA27/3 virus,> 60%
CC(=O)Oc1ccccc1C(=O)Nc1ncc([N+](=O)[O-])s1 [nitazoxanide],antiviral activity in cultured cells infected with rubella virus,rubella virus [13],showed antiviral activity
same,rubella virus antigen in patient (skin lesions),rubella virus [14],reduced rubella antigen

# From PMC10479830, “Nucleoside analogs NM107 and AT-527 are antiviral against rubella virus” (PNAS Nexus, 2023)
